Series [1] in a line: Critical wavelength (λcrit), approximate in-house measurement. It counts as physicochemical. From the text:
As the precise test for critical wavelength was unable to be replicated exactly by the inventors due to the need for specialist equipment and a specific calibration of the spectrophotometer, these values are only approximate to a degree. […] This represents a highly useful result and so, compounds based around this benzoyl substitution pattern shown, are especially preferred.

A short description of series [2]: UV absorption properties (λmax, molar extinction coefficient ε, efficiency E 1%, 1 cm). The class given is physicochemical. To be noted: for ε: in M-1 cm-1.
Where [3] appears, read: Table 13B, miscellaneous compounds.
The mark [4] stands for this setting: Table 13B, values in order of the λmax values.
The mark [5] stands for this setting: Table 3, compounds from isocyanates or isothiocyanates.

Structures are written as SMILES.

These results are taken from patent publication US10519111B2, “UV absorbing compounds, compositions comprising same and uses thereof” (CORAL SUNSCREEN PTY LTD, priority 2013, dated 2019).

`C=CC(=O)C1=CN(c2ccc(C)cc2)CCC1(C)C` yielded a λcrit in series [1] (Table 13B) of 377 nm. The λmax in series [2] (setting [3]) is 348 nm. For the same molecule, in series [2] (setting [4]), the “E (1%, 1 cm)” value is 1045 and the ε amounted to 26657.
Taken in the same sequence, the figures for `CCCCNc1ccc(C(=O)C2=CN(C(C)(C)C)CCC2(C)C)cc1` were 360 nm, 316 nm, 626 and 21545.
The molecule `CC1(C)CCN(C(C)(C)C)C=C1C(=O)N(CCCCN(C(=O)C1=CN(C(C)(C)C)CCC1(C)C)c1ccccc1)c1ccccc1` had a λcrit in series [1] (Table 13B) of 357 nm. Moreover, in series [2] (setting [3]), the λmax was 312 nm. In addition, in series [2] (setting [4]), the “E (1%, 1 cm)” value came to 354 and the ε was determined as 22166.
Taken in the same sequence, the figures for `CC1(C)CCN(C(C)(C)C)C=C1C(=O)N(Cc1ccc(CN(C(=O)C2=CN(C(C)(C)C)CCC2(C)C)c2ccccc2)cc1)c1ccccc1` were 365 nm, 314 nm, 391 and 26421.
Taken in the same sequence, the figures for `CCC(=O)C1=CN(c2ccc(Oc3ccc(N4C=C(C(=O)CC)C(C)(C)CC4)cc3)cc2)CCC1(C)C` were 353 nm, 334 nm, 1121 and 58063.
Taken in the same sequence, the figures for `Cc1cc(-c2ccc(N3C=C(C(=O)C(F)(F)F)C(C)(C)CC3)c(C)c2)ccc1N1C=C(C(=O)C(F)(F)F)C(C)(C)CC1` were 354 nm, 331 nm, 1207 and 71432.
`Cc1cc(-c2ccc(N3C=C(C(=O)C(F)(F)F)C(C)(C)CC3)c(C)c2)ccc1N1C=CC(C)(C)C(C(=O)C(F)(F)F)=C1` came in with a λcrit in series [1] (Table 13B) of 378 nm. The same molecule returned a λmax in series [2] (setting [3]) of 326 nm. In series [2] (setting [4]), the “E (1%, 1 cm)” value turned out to be 859 and the ε amounted to 50670.
Taken in the same sequence, the figures for `CCC(=O)C1=CN(c2ccc(-c3ccc(N4C=C(C(=O)CC)C(C)(C)CC4)c(C)c3)cc2C)CCC1(C)C` were 349 nm, 328 nm, 1234 and 63191.
For `Cc1cc(/C=C/C(=O)C2=CN(C(C)(C)C)CCC2(C)C)c(C)cc1Br`, in that order: 386 nm, 360 nm, 532 and 21473.
As to `Cc1cc(/C=C/C(=O)C2=CN(C(C)(C)C)CCC2(C)C)c(C)cc1/C=C/C(=O)C1=CN(C(C)(C)C)CCC1(C)C`, in series [1] (Table 13B), the λcrit is 390 nm. Moreover, the λmax in series [2] (setting [3]) is recorded as 385 nm. Besides, in series [2] (setting [4]), the “E (1%, 1 cm)” value amounted to 591 and the ε amounted to 32159.
For `COC(=O)c1cc(Br)ccc1/C=C/C(=O)C1=CN(C(C)(C)C)CCC1(C)C`, in that order: 386 nm, 362 nm, 411 and 13489.
For the molecule `COC(=O)c1cc(/C=C/C(=O)C2=CN(C(C)(C)C)CCC2(C)C)ccc1/C=C/C(=O)C1=CN(C(C)(C)C)CCC1(C)C`, the λcrit in series [1] (Table 13B) is reported as 389 nm. This molecule also showed a λmax in series [2] (setting [3]) of 383 nm. Also, in series [2] (setting [4]), the “E (1%, 1 cm)” value turned out to be 525 and the ε was determined as 30128.
The molecule `CCCCCCC(=O)C1=CN(c2ccc(N3C=C(C(=O)CCCCCC)C(C)(C)CC3)cc2)CCC1(C)C` returned a λcrit in series [1] (Table 13B) of 378 nm. This molecule came in with a λmax in series [2] (setting [3]) of 359 nm.
For `CCOC(=O)c1cc(/C=C/C(=O)C2=CN(C(C)(C)C)CCC2(C)C)c(C(=O)OCC)cc1/C=C/C(=O)C1=CN(C(C)(C)C)CCC1(C)C`, the λcrit in series [1] (Table 13B) came out at 388 nm. Moreover, in series [2] (setting [3]), the λmax was found to be 383 nm. In series [2] (setting [4]), the “E (1%, 1 cm)” value turned out to be 355 and the ε turned out to be 23457.
For `COc1cc(/C=C/C(=O)C2=CN(C(C)(C)C)CCC2(C)C)c(OC)cc1/C=C/C(=O)C1=CN(C(C)(C)C)CCC1(C)C`, in that order: 391 nm, 402 nm, 559 and 32220.
For `CC1(C)CCN(C(C)(C)C)C=C1C(=O)/C=C/c1ccc(/C=C/C(=O)C2=CN(C(C)(C)C)CCC2(C)C)c([N+](=O)[O-])c1`, in that order: 388 nm, 391 nm, 369 and 24359.
Regarding `CC1(C)CCN(C(C)(C)C)C=C1C(=O)c1ccc(N2CCN(c3ccc(C(=O)C4=CN(C(C)(C)C)CCC4(C)C)cc3)CC2)cc1`, the λcrit in series [1] (Table 13B) was 356 nm. This molecule displayed a λmax in series [2] (setting [3]) of 323 nm. In series [2] (setting [4]), the “E (1%, 1 cm)” value is on record as 830 and the ε turned out to be 51851.
Taken in the same sequence, the figures for `CCCCC(CC)CNc1ccc(C(=O)C2=CN(C(C)(C)C)CCC2(C)C)cc1` (stereo not shown) were 362 nm, 318 nm, 551 and 21936.
Molecule `CCC(=O)C1=CN(c2ccc(N3C=C(C(=O)CC)C(C)(C)CC3)cc2)CCC1(C)C` gave a λcrit in series [1] (Table 13B) of 377 nm. Moreover, in series [2] (setting [3]), the λmax was determined as 357 nm. Further, in series [2] (setting [4]), the “E (1%, 1 cm)” value was found to be 1290 and the ε is recorded as 52638.
For `CCCCCCCCCC(=O)C1=CN(c2ccc(N3C=C(C(=O)CCCCCCCCC)C(C)(C)CC3)cc2)CCC1(C)C`, in series [1] (Table 13B), the λcrit was found to be 378 nm. Besides, the λmax in series [2] (setting [3]) was 359 nm. In series [2] (setting [4]), the “E (1%, 1 cm)” value was found to be 898 and the ε stood at 54278.
For `CCCCCCCCCCCCCCCCCC(=O)C1=CN(c2ccc(N3C=C(C(=O)CCCCCCCCCCCCCCCCC)C(C)(C)CC3)cc2)CCC1(C)C`, in that order: 379 nm, 359 nm, 447 and 37068.
For `CCCOC(=O)CCC(=O)C1=CN(c2ccc(N3C=C(C(=O)CCC(=O)OCCC)C(C)(C)CC3)cc2)CCC1(C)C`, in that order: 377 nm, 358 nm, 820 and 47560.
`CC1(C)CCN(c2ccc(N3C=C(C(=O)CC4CCCCC4)C(C)(C)CC3)cc2)C=C1C(=O)CC1CCCCC1`: the λcrit in series [1] (Table 13B) is on record as 379 nm. Further, the λmax in series [2] (setting [3]) amounted to 360 nm. In series [2] (setting [4]), the “E (1%, 1 cm)” value is 1030 and the ε came out at 56032.
For `CCCCCCC(=O)C1=CN(c2ccc(N3C=C(C(=O)CC(C)CCC=C(C)C)C(C)(C)CC3)cc2)CCC1(C)C` (stereo not shown), in that order: 378 nm, 358 nm, 934 and 52353.
Taken in the same sequence, the figures for `CC(C)(C)CC(C)(C)N1C=C(C(=O)/C=C/c2ccc(/C=C/C(=O)C3=CN(C(C)(C)CC(C)(C)C)CCC3(C)C)cc2)C(C)(C)CC1` were 390 nm, 386 nm, 486 and 31937.
Taken in the same sequence, the figures for `CC(C)(C)CC(C)(C)N1C=C(C(=O)/C=C/c2ccc(Br)cc2)C(C)(C)CC1` were 386 nm, 360 nm, 437 and 18987.
In the case of `CC(C)(C)CC(C)(C)N1C=C(C(=O)/C=C/c2ccc(/C=C/C(=O)Cl)cc2)C(C)(C)CC1`, in series [1] (Table 13B), the λcrit is on record as 385 nm. In series [2] (setting [3]), the λmax is recorded as 374 nm. In addition, in series [2] (setting [4]), the “E (1%, 1 cm)” value was 434 and the ε came to 19194.
In turn, `CC1(C)CCN(C(C)(C)C)C=C1C(=O)Nc1ccccc1` [drawing 57] returned a λcrit in series [1] (Table 3) of 326 nm. Besides, in series [2] (Table 3), the “Ε (1%, 1 cm)” value was 1217 and the ε is 34834. This molecule also showed a λmax in series [2] (setting [5]) of 308 nm.
For `CN(C(=O)C1=CN(C(C)(C)C)CCC1(C)C)c1ccccc1` [drawing 58], in that order: 337 nm, 506, 15174 and 312 nm.
Taken in the same sequence, the figures for `CC1(C)CCN(C(C)(C)C)C=C1C(=O)NCCCCCCNC(=O)C1=CN(C(C)(C)C)CCC1(C)C` [drawing 59] were 314 nm, 619, 31072 and 289 nm.
For `CC1(C)CCN(C(C)(C)C)C=C1C(=S)Nc1ccccc1` [drawing 60], in that order: 387 nm, 691, 20881 and 363 nm.
For `CCCCNC(=O)C1=CN(C(C)(C)C)CCC1(C)C` [drawing 61], the λcrit in series [1] (Table 3) turned out to be 312 nm. Moreover, in series [2] (Table 3), the “Ε (1%, 1 cm)” value stood at 799 and the ε turned out to be 22531. Besides, in series [2] (setting [5]), the λmax is listed as 288 nm.
For `Cc1ccc(NC(=O)C2=CN(C(C)(C)C)CCC2(C)C)cc1NC(=O)C1=CN(C(C)(C)C)CCC1(C)C` [drawing 62], in that order: 329 nm, 1174, 59763 and 308 nm.
For `CC1(C)CCN(C(C)(C)C)C=C1C(=O)Nc1ccc(Cc2ccc(NC(=O)C3=CN(C(C)(C)C)CCC3(C)C)cc2)cc1` [drawing 63], in that order: 328 nm, 1105, 64589 and 310 nm.
Turning to `Cc1ccc(S(=O)(=O)NC(=O)C2=CN(C(C)(C)C)CCC2(C)C)cc1` [drawing 64], the λcrit in series [1] (Table 3) was 319 nm. In series [2] (Table 3), the “Ε (1%, 1 cm)” value turned out to be 950 and the ε is 34588. This molecule also registered a λmax in series [2] (setting [5]) of 304 nm.
For `CC1(C)CCN(C(C)(C)C)C=C1C(=O)Nc1ccc(NC(=O)C2=CN(C(C)(C)C)CCC2(C)C)cc1` [drawing 65], in that order: 346 nm, 1456, 71962 and 322 nm.
